From patent US20260325605A1, “INHIBITORS” (Zealand Pharma A/S, priority 2022, published 2026)
Where two headings read alike, the source gives them in different places.

Key:
Kv1.2 = molecular target: T1, Kv1.2 (Homo sapiens, UniProt P16389); assay: Patch clamp assay (QPatch), Kv1.2; assay type: cell-based
T1 construct: expressed in transfected cells

Kv1.6 = molecular target: T2, Kv1.6 (Homo sapiens, UniProt P17658); assay: Patch clamp assay (QPatch), Kv1.6; assay type: cell-based
T2 construct: expressed in transfected cells

[1] = system: T-cell activation in human whole blood; assay: Example 5: IFN-g, IL-2 and IL-17A release in thapsigargin stimulated human whole blood; assay type: cell-based; settings: 24 Hr, at least 2 replicate experiments
From the text: Human whole blood was used to assess the potency of Kv1.3 inhibitor peptides on T-cell activation as determined by release of the cytokines IFN-g, IL-2 and IL-17A after stimulation with thapsigargin. Addition of thapsigargin activates a signalling cascade resulting in T cell proliferation and cytokine production, in which the Kv1.3 ion channel plays a key role. Activity of Kv1.3 inhibitors in human primary T cells can thus be measured in this experimental system.
Human whole blood was obtained from healthy blood donors and was collected after informed consent using Sodium Heparin blood sampling tubes (Becton, Dickinson and Company (BD), Cat #367876). Test peptides were diluted to 4× final testing concentrations in assay buffer (Dulbecco's Modified Eagle's medium (DMEM) with high glucose and GlutaMAX (3.97 mM L-alanine-L-glutamine) (Gibco Cat #61965026) supplemented with 25 mM HEPES buffer, 1 mM Sodium Pyruvate, 100 units/ml Penicillin, 100 μg/ml Streptomycin and 0.05% Casein from bovine milk (Sigma-Aldrich Cat #C4765)) and 25 μl was added to wells of a 96 well tissue culture plate. Then 50 μl human whole blood was added and incubated for minimum 5 minutes at room temperature to allow compound binding. Then 25 μl of 40 μM thapsigargin diluted in assay buffer was added to all wells of the assay plates to activate the cells, followed by incubation for 24 Hr at 37° C./5% CO2 in a humidified box. The assay plates were centrifuged for 10 min at 300 g at 4° C. and the supernatants were transferred to new plates. The concentrations of IFN-g, IL-2 and IL-17A released to the supernatants were measured using a tri-plex human cytokine detection kit (MSD Human U-Plex IFN-g, IL-2 and IL-17A kit; Meso Scale Discovery Cat #K15067L-2) and all three cytokines were measured using a MSD MESO QuickPlex SQ 120 instrument as described by the manufacturer (Meso Scale Discovery, Rockville, Maryland, USA).
To determine the potency of inhibition for the compounds, the cytokine concentration data were fitted using a three parameter logistic dose response model based on the formula Y=Bottom+(Top−Bottom)/(1+IC50/X), where Y is measured cytokine concentrations, X is compound concentrations and Top, bottom and IC50 are parameters fitted using the software Graphpad Prism version 5.04. The IC50 value calculated from the concentration response curve represents the compound concentration that gives an inhibition response halfway between the basal (Bottom) response and the maximal (Top) response.
All values are derived from at least 2 replicate experiments. All of the tested Kv1.3 blockers were able to inhibit cytokine production from human T cells present in human whole blood that was stimulated with thapsigargin.

Kv1.3 = molecular target: T3, Kv1.3 (Homo sapiens, UniProt P22001); assay: Patch clamp assay (QPatch), Kv1.3; assay type: cell-based; settings: CHO cells stably expressing human Kv1.3, read-out: Potency IC50, Kv1.3
T3 construct: expressed in transfected cells
Description: Selectivity of Kv1.3 inhibitor peptides for Kv1.3 over other potassium ion channels (Kv1.1, Kv1.2 and Kv1.6) was determined using patch clamp assay.
Chinese Hamster Ovary (CHO) cell lines stably expressing exogenous human α-subunits of each potassium ion channel were grown and passaged under standard culture conditions.
The automated, chip-based planar patch clamp device QPatch® was used to quantitate the ionic currents. All recordings were made in the conventional whole-cell configuration after establishment of gigaohm seals. […] During experiments 0.1% (v/v) BSA was included as a vehicle in all external recording solutions. Currents were elicited from a holding potential of −80 mV using a voltage protocol, which shifted the voltage to 30 mV for 500 ms every 15 s.
Concentration-response relationships were established by cumulatively applying seven escalating concentrations of test sample to an individual cell with a recording period of 2 min per compound application.
The efficacy was determined as the mean charge for the last three sweeps at the end of each concentration application period from the cursor positions. The percent inhibition for each test dose application period was calculated as the reduction in mean cursor value (charge) relative to the cursor value measured at the end of the vehicle period and used to calculate the IC50 from the concentration response curve.

Kv1.1 = molecular target: T4, Kv1.1 (Homo sapiens, UniProt Q09470); assay: Patch clamp assay (QPatch), Kv1.1; assay type: cell-based
T4 construct: expressed in transfected cells

[2] = system: KLH-induced DTH ear swelling in rats; assay: Example 8: Long-lasting effect in KLH-induced delayed type hypersensitivity (DTH) model; assay type: in vivo, rat (Lewis)
Description: The animal care facility employed is accredited by AAALAC. Female Lewis rats, weighing 180±20 g at delivery were used for this study. Following arrival in the animal facility, all animals were subjected to a general health evaluation. An acclimation period of 1 day was allowed before the beginning of the study.
The animal room was maintained at a controlled temperature of 20-24° C. and a relative humidity of 30-70%. A controlled lighting system assured 12 hours light, 12 hours dark per day to the animals. Adequate ventilation of 15 air changes per hour was maintained.
This study was performed to investigate the length of effect of a Kv1.3 inhibitor (peptide 100) on ear inflammation in the KLH-induced DTH model in rats.
Healthy male Lewis rats aged 8-9 weeks were immunized on day 0 with 200 μL keyhole limpet hemocyanin (KLH) (from Sigma, cat.no. H7017) (4 mg/mL) emulsified in complete Freund's adjuvant (CFA) (Difco, cat.no. 263810) subcutaneously (SC) at the base of the tail.
To elicit a KLH-specific T cell-mediated local inflammation, rats were challenged intradermally at indicated timepoints (days 7, 9, 11 or 13 post-immunisation) with 40 μL KLH/NaCl 0.9% (2 mg/mL) in the left ear. Ear edemas were measured after 24-48 hrs and the right ear that was left untreated served as control. A schematic overview of the protocol is depicted in FIG. 1.
The ability of Kv1.3 inhibitor treatment to reduce the DTH ear swelling response was investigated by comparing the response in rats (n=8/group) treated with vehicle to that of rats treated with peptide 100. Vehicle or peptide 100 dissolved in vehicle was administered SC (2 mL/kg) on day 6. The test dose of Kv1.3 inhibitor was 300 nmol/kg. Test vehicle was 10 mM phosphate, 0.8% w/v NaCl, 0.05% w/v polysorbate20, pH 6. Cyclosporine A (CsA) was included as positive study control.
As readout of efficacy, the thickness of the induced ear 24 hrs and 48 hrs after respective ear challenge was measured and compared to vehicle control. Ear thickness 24 hrs after challenge is shown in Table 10 and FIG. 2 and ear thickness 48 hrs after challenge is shown in Table 11 and FIG. 3.

T2 sequence (P17658 whole entry): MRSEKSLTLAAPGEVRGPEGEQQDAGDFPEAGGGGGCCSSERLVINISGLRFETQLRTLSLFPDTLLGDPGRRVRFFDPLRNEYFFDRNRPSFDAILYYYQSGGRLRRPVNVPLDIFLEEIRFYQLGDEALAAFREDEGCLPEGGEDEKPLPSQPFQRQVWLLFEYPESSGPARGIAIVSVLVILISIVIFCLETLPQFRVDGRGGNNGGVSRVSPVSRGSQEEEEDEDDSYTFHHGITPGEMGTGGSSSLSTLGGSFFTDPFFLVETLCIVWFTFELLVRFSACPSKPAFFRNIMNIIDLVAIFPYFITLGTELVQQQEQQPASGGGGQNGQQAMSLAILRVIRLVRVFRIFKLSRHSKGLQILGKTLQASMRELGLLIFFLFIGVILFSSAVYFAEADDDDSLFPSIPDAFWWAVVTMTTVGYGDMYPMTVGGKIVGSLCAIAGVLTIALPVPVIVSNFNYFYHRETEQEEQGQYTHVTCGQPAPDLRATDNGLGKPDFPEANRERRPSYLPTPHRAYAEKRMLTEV
T1 sequence (P16389 whole entry): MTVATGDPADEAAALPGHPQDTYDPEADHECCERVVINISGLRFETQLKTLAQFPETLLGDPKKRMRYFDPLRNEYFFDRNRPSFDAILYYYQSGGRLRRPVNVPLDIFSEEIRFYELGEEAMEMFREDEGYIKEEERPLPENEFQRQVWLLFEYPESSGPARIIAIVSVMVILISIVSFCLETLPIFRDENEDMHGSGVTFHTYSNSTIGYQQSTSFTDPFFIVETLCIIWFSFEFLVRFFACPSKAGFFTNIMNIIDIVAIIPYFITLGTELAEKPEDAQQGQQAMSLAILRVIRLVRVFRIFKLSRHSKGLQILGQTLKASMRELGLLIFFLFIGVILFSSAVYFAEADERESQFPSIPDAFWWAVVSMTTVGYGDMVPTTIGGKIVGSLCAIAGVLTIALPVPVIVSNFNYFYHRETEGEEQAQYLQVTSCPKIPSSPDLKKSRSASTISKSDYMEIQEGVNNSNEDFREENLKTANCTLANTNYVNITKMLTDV
T4 sequence (Q09470 whole entry): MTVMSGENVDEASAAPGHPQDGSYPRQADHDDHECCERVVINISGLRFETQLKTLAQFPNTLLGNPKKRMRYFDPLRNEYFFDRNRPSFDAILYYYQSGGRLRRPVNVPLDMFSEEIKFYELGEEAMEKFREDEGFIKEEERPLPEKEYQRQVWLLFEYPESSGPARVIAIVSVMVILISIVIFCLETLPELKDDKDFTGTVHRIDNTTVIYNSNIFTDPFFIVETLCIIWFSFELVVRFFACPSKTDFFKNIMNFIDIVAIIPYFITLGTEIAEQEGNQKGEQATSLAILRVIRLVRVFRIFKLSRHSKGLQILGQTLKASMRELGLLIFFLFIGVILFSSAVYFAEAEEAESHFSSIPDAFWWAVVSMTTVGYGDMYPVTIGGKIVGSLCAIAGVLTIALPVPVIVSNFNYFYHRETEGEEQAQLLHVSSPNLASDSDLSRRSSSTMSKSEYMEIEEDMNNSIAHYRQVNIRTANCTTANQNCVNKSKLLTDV
T3 sequence (P22001 whole entry): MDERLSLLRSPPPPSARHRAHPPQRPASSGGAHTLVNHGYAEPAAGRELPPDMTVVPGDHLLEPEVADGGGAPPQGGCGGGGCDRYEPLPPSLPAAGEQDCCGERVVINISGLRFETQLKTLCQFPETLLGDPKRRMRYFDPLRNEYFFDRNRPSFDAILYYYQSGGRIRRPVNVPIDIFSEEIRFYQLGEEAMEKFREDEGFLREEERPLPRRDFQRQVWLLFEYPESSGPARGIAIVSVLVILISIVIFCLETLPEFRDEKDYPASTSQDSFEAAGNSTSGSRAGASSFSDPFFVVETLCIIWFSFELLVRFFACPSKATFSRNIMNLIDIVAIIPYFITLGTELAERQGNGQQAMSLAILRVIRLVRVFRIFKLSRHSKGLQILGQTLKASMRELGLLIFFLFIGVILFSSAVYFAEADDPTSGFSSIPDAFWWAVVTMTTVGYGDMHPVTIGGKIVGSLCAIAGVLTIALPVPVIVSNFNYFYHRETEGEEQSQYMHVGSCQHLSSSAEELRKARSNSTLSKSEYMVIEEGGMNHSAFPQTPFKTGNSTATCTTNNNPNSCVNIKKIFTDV

H-P[Nle]E[Nle]RC(1)SASVEC(2)KQKC(3)LAAIGSIFGKC(1)[Nle]NKKC(2)KC(3)YPR-OH [Peptide 100]
IC50 (Kv1.2; QPatch, CHO cells stably expressing human Kv1.2, read-out: Potency IC50, Kv1.2): 1120 nM
Selectivity Kv1.2/Kv1.3 (Kv1.2; ratio of IC50 Kv1.2/Kv1.3): 3384
IC50 (Kv1.6; QPatch, CHO cells stably expressing human Kv1.6, read-out: Potency IC50, Kv1.6): > 3000 nM
Selectivity Kv1.6/Kv1.3 (Kv1.6; ratio of IC50 Kv1.6/Kv1.3): >9100
IC50 ([1]; read-out: Average IC50, IFN-g): 0.11 nM
IC50 ([1]; read-out: Average IC50, IL-2): 0.095 nM
IC50 ([1]; read-out: Average IC50, IL-17A): 0.15 nM
IC50 (Kv1.3): 0.33 nM
IC50 (Kv1.1; QPatch, CHO cells stably expressing human Kv1.1, read-out: Potency IC50, Kv1.1): > 3000 nM
Selectivity Kv1.1/Kv1.3 (Kv1.1; ratio of IC50 Kv1.1/Kv1.3): >9100
effect on KLH-induced ear swelling / inflammation ([2]; 300 nmol/kg on day 6, challenges on days 7, 9 and 11, in words): reduced KLH-induced ear swelling after challenges on days 7, 9 and 11
Mean ear thickness of KLH-induced ear ([2]; 300 nmol/kg s.c. day 6, challenge day 7, 24 hrs post-challenge (2 days post-treatment), vehicle 0.796, p<0.0001): 0.676±0.017 mm
Mean ear thickness of KLH-induced ear ([2]; 300 nmol/kg s.c. day 6, challenge day 7, 48 hrs post-challenge (3 days post-treatment), vehicle 0.733, p<0.0001): 0.623±0.015 mm
Mean ear thickness of KLH-induced ear ([2]; 300 nmol/kg s.c. day 6, challenge day 9, 24 hrs post-challenge (4 days post-treatment), vehicle 0.761, p=0.0011): 0.689±0.031 mm
Mean ear thickness of KLH-induced ear ([2]; 300 nmol/kg s.c. day 6, challenge day 9, 48 hrs post-challenge (5 days post-treatment), vehicle 0.729, p=0.0002): 0.659±0.034 mm
Mean ear thickness of KLH-induced ear ([2]; 300 nmol/kg s.c. day 6, challenge day 11, 24 hrs post-challenge (6 days post-treatment), vehicle 0.784, p<0.0001): 0.681±0.023 mm
Mean ear thickness of KLH-induced ear ([2]; 300 nmol/kg s.c. day 6, challenge day 11, 48 hrs post-challenge (7 days post-treatment), vehicle 0.746, p<0.0001): 0.653±0.013 mm
Mean ear thickness of KLH-induced ear ([2]; 300 nmol/kg s.c. day 6, challenge day 13, 24 hrs post-challenge (8 days post-treatment), vehicle 0.767, p=0.0696, not significant): 0.729±0.038 mm
Mean ear thickness of KLH-induced ear ([2]; 300 nmol/kg s.c. day 6, challenge day 13, 48 hrs post-challenge (9 days post-treatment), vehicle 0.720, p=0.2256, not significant): 0.699±0.028 mm
Mean ear thickness of KLH-induced ear ([2]; measured 48 hrs post-challenge, day 3 post-treatment, 300 nmol/kg SC): 0.623 mm
Mean ear thickness of KLH-induced ear ([2]; measured 48 hrs post-challenge, day 5 post-treatment, 300 nmol/kg SC): 0.659 mm
Mean ear thickness of KLH-induced ear ([2]; measured 48 hrs post-challenge, day 7 post-treatment, 300 nmol/kg SC): 0.653 mm
Mean ear thickness of KLH-induced ear ([2]; measured 48 hrs post-challenge, day 9 post-treatment, 300 nmol/kg SC): 0.699 mm
